Molecules are shown by their SMILES. Entries after “also recorded” stand apart in the source; their conditions may differ. Where two headings read alike, the source gives them in different places.

In series [1] the test system is HepG2 cells. The experiment in a line: Cytotoxicity (CCK8, 48 h) of drugs, PDCs, activable-Drugs and TCO, HepG2. The note with it: 200 μM TCO.
Series [2] relates to MDA-MB-231 cells. Description: Cytotoxicity (CCK8, 48 h) of drugs, PDCs, activable-Drugs and TCO, MDA-MB-231. The format is cell-based, Human. Conditions: 200 μM TCO.
The test system of series [3] is B16F10 cells. The experiment in a line: Cytotoxicity (CCK8, 48 h) of drugs, PDCs, activable-Drugs and TCO, B16F10. In kind it is cell-based, Mouse. The note with it: 200 μM TCO.
Series [4] deals with U87 cells. Description: Cytotoxicity (CCK8, 48 h) of drugs, PDCs, activable-Drugs and TCO, U87. In kind it is cell-based, Human. Conditions: 200 μM TCO.
Series [5] relates to SKOV3 cells. Description: Cytotoxicity (CCK8, 48 h) of drugs, PDCs, activable-Drugs and TCO, SKOV3. In kind it is cell-based, Human. Conditions: 200 μM TCO.
In series [6] the test system is LX2 cells. The experiment in a line: Cytotoxicity (CCK8, 48 h) of drugs, PDCs, activable-Drugs and TCO, LX2. The format is cell-based, Human. The note with it: 200 μM TCO.
Series [7] deals with B16F10 melanoma tumor. Description: In vivo anticancer efficacy, subcutaneous B16F10 melanoma tumor model. Further details: species or system BALB/c nude mice. The note with it: four i.v. courses, 3.67 μmol·kg^−1 (TCO-P4 36.7 μmol·kg^−1), n = 5. As to the method: Tumor-bearing mice were established by subcutaneously injecting a suspension of 5 × 10^5 B16F10 cells per mouse into the front flank of each nude mouse. When tumor volume reached 50−70 mm^3, the animals were randomly divided into five groups (n = 5). The mice were administered different compounds suspended in PBS via the tail vein every 3 days for a total of four times.
The mice underwent four treatment courses on day 0, day 3, day 6, and day 9. Tumor size and body weight were measured every day. Tumor volume was calculated via the following formula: V = 1/2 × (minor axis) × (major axis)[2].
After 12 days, the mice were sacrificed and dissected to obtain tumor tissues and main organs, including heart, liver, spleen, lung, and kidney. Subsequently, all tissues were fixed in a 4% paraformaldehyde solution, routinely paraffin-embedded and sectioned, and then stained with hematoxylin and eosin, as well as using TdT-mediated dUTP nick-end labeling (TUNEL) for subsequent pathological analysis. TUNEL-positive cells appeared fluorescent green, representing the apoptosis of tumor cells (nuclei were fluorescent blue, stained with DAPI).
13. In vivo anticancer efficacy […]
13.2 Calculation of the tumor growth inhibition values (TGI)
Tumor growth inhibition values (TGI) were calculated using the following formula: TGI (%) = (1 − RTVtreatment/
RTVcontrol)*100. RTV refers to relative tumor volume, representing the ratio of the volume at the end of treatment to the
volume at the beginning of treatment. […]

Series [8] is classed as physicochemical. Conditions: for intact (%) under 10 mM GSH: 520 nm HPLC–MS (PyTz UV–Vis). Here is the method: All tetrazine compounds were diluted to a concentration of 50 μM or 2 μM using PBS (10% DMSO, pH 7.4). A stock solution of GSH (400 mM in PBS) was then added to achieve a final concentration of 10 mM. The mixture was homogenized and incubated at 37 °C for 12 h. The stability of the compounds (including all peptide conjugates and PmTz) was assessed by measuring the decrease in peak area at 520 nm (with the initial peak area at 0 min defined as 100%). This measurement was monitored by HPLC–MS. Similarly, the stability of PyTz was determined by monitoring the decrease in peak intensity at 520 nm using UV–Vis. Statistical analysis was performed on data from three replicates to calculate the mean and standard deviation. […]
Response 1: We appreciate your comment. We conducted stability tests on RGD-Dox and RGD-SN-38 in 10 mM GSH at a concentration of 2 μM, which is below the critical micelle concentrations. After incubating at 37 °C for 12 hours, we observed that 95% of RGD-Dox and 85% of RGD-SN-38 remained intact. This stability is slightly less than […]
the observed stability is intrinsic to the peptide-drug conjugates, with a slight enhancement due to micelle […]
concentrations, after 12 hours of incubation at 37 °C (Figure S46). […]
intrinsic to the PDCs, with a slight enhancement by micelle formation.
Details of these experiments have been included in the Supplementary Information (Page S42), as outlined below:
RGD-Dox and RGD-SN-38 were diluted to a concentration of 2 μM using PBS (10% DMSO, pH 7.4). A stock solution of GSH (400 mM in PBS) was then added to achieve a final concentration of 10 mM. The mixture was homogenized and incubated at 37 °C for 12 hours. Stability was assessed by measuring the decrease in peak area at 520 nm (with the initial peak area at 0 min defined as 100%). This measurement was monitored by HPLC–MS. Statistical analysis was performed on data from three replicates to calculate the mean and standard deviation.

Setting [9] is: 1 h, Data 1, 50 μM, PBS pH 7.4, 10% DMSO, 37 °C.
The mark [10] stands for this setting: 1 h, Data 2, 50 μM, PBS pH 7.4, 10% DMSO, 37 °C.
The mark [11] stands for this setting: 1 h, Data 3, 50 μM, PBS pH 7.4, 10% DMSO, 37 °C.

Regarding `C1=C/CCCCCC/1` [TCO, trans-cyclooctene], the figures for the “HepG2 (Cell viability%)” value in series [1] (Data 1), in series [1] (Data 2) and in series [1] (Data 3) were 94.3888%, 93.5935% and 92.7384%, respectively. In addition, the “MDA-MB-231 (Cell viability%)” value in series [2] (Data 1) is given as 96.0832%; in series [2] (Data 2) it was 97.4309%; in series [2] (Data 3), 97.8186%. The “B16F10 (Cell viability%)” value in series [3] (Data 1) is given as 97.5688%; in series [3] (Data 2), 97.508%; in series [3] (Data 3) it was 97.9504%. Besides, the entries for the “U87 (Cell viability%)” value in series [4] (Data 1), in series [4] (Data 2) and in series [4] (Data 3) were 96.2952%, 96.092% and 96.4775%, respectively. The “SKOV3 (Cell viability%)” value came to 93.7367% in series [5] (Data 1), 92.4982% in series [5] (Data 2) and 93.3583% in series [5] (Data 3). For the same compound, the “LX2 (Cell viability%)” value in series [6] (Data 1) was found to be 99.7395%; in series [6] (Data 2) it was 98.5462%; in series [6] (Data 3), 97.8594%.
As for `COCCOCCOCCOCCC(=O)NCCC1(O)CC/C=C/CCC1` (racemic) [TCO-P4], in series [7], the “tumor growth / inhibition in words” value was “did not exhibit significant tumor inhibition; also recorded: rapid tumor growth”.
Turning to `Cc1nnc(-c2ncccn2)nn1` [PmTz, pyrimidine tetrazine, reference compound], the “intact (%) under 10 mM GSH” value in series [8] (setting [9]) was found to be 86.4895%; in series [8] (setting [10]), 82.9483%; in series [8] (setting [11]), 87.2017%; in series [8] (3 h, Data 1, 50 μM, PBS pH 7.4, 10% DMSO, 37 °C), 75.526%; in series [8] (3 h, Data 2, 50 μM, PBS pH 7.4, 10% DMSO, 37 °C), 72.3872%; in series [8] (3 h, Data 3, 50 μM, PBS pH 7.4, 10% DMSO, 37 °C), 74.6204%. For the same compound, the “intact (%) under 10 mM GSH” value in series [8] (5 h, Data 1, 50 μM, PBS pH 7.4, 10% DMSO, 37 °C) is 63.0897%; in series [8] (5 h, Data 2, 50 μM, PBS pH 7.4, 10% DMSO, 37 °C) it was 68.3168%; in series [8] (5 h, Data 3, 50 μM, PBS pH 7.4, 10% DMSO, 37 °C) it was 70.9327%; in series [8] (8 h, Data 1, 50 μM, PBS pH 7.4, 10% DMSO, 37 °C) it was 50.7674%; in series [8] (8 h, Data 2, 50 μM, PBS pH 7.4, 10% DMSO, 37 °C), 52.9065%; in series [8] (8 h, Data 3, 50 μM, PBS pH 7.4, 10% DMSO, 37 °C) it was 52.3167%. Further, the “intact (%) under 10 mM GSH” value in series [8] (12 h, Data 1, 50 μM, PBS pH 7.4, 10% DMSO, 37 °C) was found to be 38.6932%; in series [8] (12 h, Data 2, 50 μM, PBS pH 7.4, 10% DMSO, 37 °C) it was 39.3861%; in series [8] (12 h, Data 3, 50 μM, PBS pH 7.4, 10% DMSO, 37 °C), 35.5445%. In addition, the “remained intact with 10 mM GSH” value in series [8] (12 h, 37 °C, 50 μM, PBS pH 7.4, 10% DMSO, HPLC–MS peak area 520 nm, mean of n = 3) came out at 38%.
Consider `c1ccc(-c2nnc(-c3ccccn3)nn2)nc1` [PyTz, reference compound], for which the “intact (%) under 10 mM GSH” value in series [8] (0.5 h, Data 1, 50 μM, PBS pH 7.4, 10% DMSO, 37 °C) worked out at 53%; in series [8] (0.5 h, Data 2, 50 μM, PBS pH 7.4, 10% DMSO, 37 °C), 43.8%; in series [8] (0.5 h, Data 3, 50 μM, PBS pH 7.4, 10% DMSO, 37 °C) it was 45%; in series [8] (setting [9]), 19%; in series [8] (setting [10]), 19.7%; in series [8] (setting [11]), 15.4%. Besides, the “intact (%) under 10 mM GSH” value was found to be 1.3% in series [8] (1.5 h, Data 1, 50 μM, PBS pH 7.4, 10% DMSO, 37 °C); 4% in series [8] (1.5 h, Data 2, 50 μM, PBS pH 7.4, 10% DMSO, 37 °C); 2.9% in series [8] (1.5 h, Data 3, 50 μM, PBS pH 7.4, 10% DMSO, 37 °C). Further, the “time to degradation with 10 mM GSH” value in series [8] (pH 7.4) is not above 3 h.

Values taken from article PMC10987521, “An all-in-one tetrazine reagent for cysteine-selective labeling and bioorthogonal activable prodrug construction” (Nature Communications, 2024).
